Results taken from patent US20220213197A1 (priority 2019, published 2022).
Several values for one entry are separate records, joined by “and”; a condition that tells them apart may be missing. Identical values can stand only once. Like-named read-outs stand apart in the source and are kept apart here.

Tests used:
[1] = system: Streptococcus pyogenes (ATCC BAA-2469); experiment: Soft tissue (thigh) infection model in neutropenic mice; assay type: in vivo; conditions: 24 hours post infection
[2] = system: Clostridium perfringens (ATCC 13124)
[3] = system: carrageenan induced inflammation in rats; experiment: Carrageenan induced paw oedema; assay type: in vivo
Procedure: Inflammatory response was induced in animals by subplantar injection (into the plantar aponeurosis of the left hind paw) of 0.1 ml 1% carrageenan solution.
The severity of inflammatory response was assessed by estimating oedema weight gain in mg calculated as a difference between the paw weights with and without oedema.

[4] = system: influenza A/California/07/09(H1N1)pdm09; assay type: in vivo, mice
[5] = system: Chlamydophila pneumonia CM1 strain; experiment: Lung infection model with Chlamydophila pneumonia; assay type: in vivo, C57BL/6J mice
[6] = system: Pseudomonas aeruginosa (RP73); experiment: Pseudomonas aeruginosa lung infection in rats; assay type: in vivo, Sprague-Dawley rats
[7] = system: Mycobacterium tuberculosis; experiment: Antituberculosis activity in guinea pig model of experimental tuberculosis; conditions: in vivo
[8] = system: Klebsiella pneumoniae BAA-1705; experiment: Bacterial pneumonia in neutropenic mice, AMC-resistant strain (Study No. 1); assay type: in vivo
[9] = system: Klebsiella pneumoniae 8637 strain; experiment: Neutropenic lung infection model; assay type: in vivo, ICR mice; conditions: for Decrease in the number of CFU vs control (placebo): Day 5
[10] = 48 hours after infection (medicament: 48 hours and onwards)

How did the “Mean bacterial burden in the femoral tissue” value [1] turn out when CC[C@H]1OC(=O)[C@H](C)C(=O)[C@H](C)[C@@H](O[C@@H]2O[C@H](C)C[C@H](N(C)C)[C@H]2O)[C@](C)(OC)C[C@@H](C)C(=O)[C@H](C)[C@H]2N(CCCCn3cnc(-c4cccnc4)c3)C(=O)O[C@]12C [placebo + T, telithromycin] was run?
The value was 8.4 CFU/g, log10.

What does the source list for CO[C@@]1(NC(=O)Cc2cccs2)C(=O)N2C(C(=O)O)=C(COC(N)=O)CS[C@@H]21 [cefoxitin]?
Animals alive ([2]; 24 hours after infection): 55%; Animals alive [2, 10]: 15%; Animals alive ([2]; 72 hours after infection): 15%

How did the Animals alive ([2]; 24 hours after infection) turn out when CN(C)[C@@H]1C(O)=C(C(N)=O)C(=O)[C@@]2(O)C(O)=C3C(=O)c4c(O)cccc4[C@@](C)(O)[C@H]3C[C@@H]12 [tetracycline] was run?
Its Animals alive is 85%.

And the Animals alive [2, 10]?
The Animals alive was 80%.

And the Animals alive ([2]; 72 hours after infection)?
Its Animals alive is 80%.

COc1ccc2c(c1)c(CC(=O)O)c(C)n2C(=O)c1ccc(Cl)cc1 [indomethacin, Indomethacin] was tested. Which “Decrease of oedema weight as compared to the control” value [3] did it give?
Its value is 57.9%.

How did the “Body weights of experimental animals expressed as M ± SD” value (from here on “Body weights … as M ± SD”) ([4]; Day 0) turn out when CCOC(=O)C1=C[C@@H](OC(CC)CC)[C@H](NC(C)=O)[C@@H](N)C1 [Tamiflu, Oseltamivir] was run?
Its value is 16.7 ± 1.2.

What about the “Body weights … as M ± SD” value ([4]; Day 5) of the same molecule?
The value was 15.5 ± 1.4.

What about the “Body weights … as M ± SD” value ([4]; Day 9) of the same molecule?
Its value is 13.6 ± 1.7.

And the “Body weights … as M ± SD” value ([4]; Day 12)?
The value was 14.9 ± 2.2.

What about the “Body weights … as M ± SD” value ([4]; Day −5) of the same molecule?
The value was 17.8 ± 1.2.

What about the “Body weights … as M ± SD” value ([4]; Day −15) of the same molecule?
Its value is 16.1 ± 1.0.

What about the “Protection index, %” value ([4]; PI=((Mc−Me)/Mc)×100%) of the same molecule?
The value was 57.1%.

What about the “MLE” value ([4]; mean life expectancy over 14 days) of the same molecule?
Its value is 8.6 days.

What about the “Mortality rate, %” value ([4]; mouse, in vivo) of the same molecule?
Its value is 30%.

What about the “Viral titer in lung tissue, Mean” value ([4]; mouse, in vivo) of the same molecule?
Its value is 4.8 Ig TCID50/0.2 ml.

What about the “Viral titer in lung tissue, individual animals” value ([4]; mouse, in vivo, listed as 2) of the same molecule?
Its value is 4.5 Ig TCID50/0.2 ml (5×) and 5.0 Ig TCID50/0.2 ml (2×) and 4.0 Ig TCID50/0.2 ml and 5.5 Ig TCID50/0.2 ml and 6.0 Ig TCID50/0.2 ml.

And the “MLE increase” value ([4]; vs negative control)?
The value was 0.2 days.

How did the Death rate ([5]; Day 3 after infection) turn out when CC[C@H]1OC(=O)[C@H](C)[C@@H](O[C@H]2C[C@@](C)(OC)[C@@H](O)[C@H](C)O2)[C@H](C)[C@@H](O[C@@H]2O[C@H](C)C[C@H](N(C)C)[C@H]2O)[C@](C)(O)C[C@@H](C)CN(C)[C@H](C)[C@@H](O)[C@]1(C)O [azithromycin] was run?
Its Death rate is 19%.

What about the “IL-1β concentration in lung tissue, % of the control levels (Group 1)” value (from here on “IL-1β concentration in lung tissue, %”) ([5]; Day 3 after infection) of the same molecule?
Its value is 17%.

What about the “IL-6 concentration in lung tissue, % of the control levels (Group 1)” value (from here on “IL-6 concentration in lung tissue, %”) ([5]; Day 3 after infection) of the same molecule?
The value was 15%.

What about the “Number of infected HEp2 cells (bacterial load of lung homogenate), % of placebo” value (“Number of infected HEp2 cells … % of placebo” for short) ([5]; Day 3 after infection) of the same molecule?
The value was 15%.

What about the “IL-1β concentration in lung tissue, %” value ([5]; Day 6 after infection) of the same molecule?
Its value is 7%.

And the “IL-6 concentration in lung tissue, %” value ([5]; Day 6 after infection)?
The value was 8%.

And the “Number of infected HEp2 cells … % of placebo” value ([5]; Day 6 after infection)?
Its value is 17%.

And the “IL-1β concentration in lung tissue, %” value ([5]; Day 12 after infection)?
Its value is 6%.

And the “IL-6 concentration in lung tissue, %” value ([5]; Day 12 after infection)?
Its value is 5%.

And the “Number of infected HEp2 cells … % of placebo” value ([5]; Day 12 after infection)?
Its value is 5%.

What about the Survival rate ([5]; whole study, deaths first recorded on Day 3) of the same molecule?
The Survival rate was 81%.

NC[C@H]1O[C@H](O[C@H]2[C@H](O)[C@@H](O[C@H]3O[C@H](CO)[C@@H](O)[C@H](N)[C@H]3O)[C@H](N)C[C@@H]2N)[C@H](N)C[C@@H]1O [tobramycin] was tested. Which “Decrease of bronchoalveolar lavage CFU count compared to placebo” value ([6]; Day 5) did it give?
The value was 88%.

What about the “Decrease of bronchoalveolar lavage CFU count compared to the untreated animals” value ([6]; Day 5) of the same molecule?
Its value is 88%.

What about the “Reduction of lung CFU count compared to placebo” value ([6]; Day 5) of the same molecule?
The value was 19%.

What about the “Reduction of lung CFU count compared to the untreated animals” value ([6]; Day 5) of the same molecule?
Its value is 29%.

What about the “Overall decrease in body weight by the end of the study” value ([6]; vs baseline) of the same molecule?
Its value is 4%.

Which “Difference between initial and final body weight of animals” value [7] does the source give for NNC(=O)c1ccncc1 [placebo + isoniazid, Isoniazid] here?
Its value is 180.6 ± 28.4 g.

And the “Life expectancy, units” value [7]?
The value was 2.7 ± 0.09 units.

With Gentamicin as the molecule, how does the Animals survived ([8]; AMC-resistant strain, 10^6 CFU/mouse) read?
The Animals survived was 70%.

And the Body weight evolution ([8]; follow-up period)?
Its Body weight evolution is “body weight evolution was observed from 54 h”.

CC(=O)NC[C@H]1CN(c2ccc(N3CCOCC3)c(F)c2)C(=O)O1 [placebo + L, linezolid] was tested. Which “Mean bacterial burden in the femoral tissue” value [1] did it give?
Its value is 5.5 CFU/g, log10.

C[C@@H](O)[C@H]1C(=O)N2C(C(=O)O)=C(SCCN=CN)C[C@H]12 [imipenem] was tested. Which Animals survived ([9]; Day 1 after infection) did it give?
Its Animals survived is 85%.

What about the Animals survived ([9]; Day 2) of the same molecule?
Its Animals survived is 70%.

And the Animals survived ([9]; Day 3 (imipenem: Day 3 and onwards))?
Its Animals survived is 50%.

What about the “Decrease in the number of CFU vs control (placebo)” value (shortened to “Decrease in the number of CFU”) ([9]; blood) of the same molecule?
The value was 67%.

And the “Decrease in the number of CFU” value ([9]; kidneys)?
The value was 61%.

What about the “Decrease in the number of CFU” value ([9]; liver) of the same molecule?
The value was 40%.

What about the “Decrease in the number of CFU” value ([9]; lungs) of the same molecule?
The value was 48%.

And the “Decrease in the number of CFU” value ([9]; spleen)?
The value was 45%.
